In patent US9074014B2 (Ipsen Pharma S.A.S., priority 2008, dated 2015):
Where a SMILES comes first, the peptide text is derived from it. [ ]: non-standard residue; d: D form. Ac6c = NC1(C(=O)O)CCCCC1; Nle = CCCC[C@H](N)C(=O)O; Ac5c = NC1(C(=O)O)CCCC1; Aib = CC(C)(N)C(=O)O

Experiments:
[1] = biological target: T1, human recombinant GIP receptor (Homo sapiens, UniProt P48546); assay: In vitro hGIP receptor binding assay ([125I]GIP displacement, CHO-K1 membranes)
T1 construct: expressed in transfected cells; host or cells: CHO-K1 clonal cells (membranes)
T1 sequence (P48546 22-466): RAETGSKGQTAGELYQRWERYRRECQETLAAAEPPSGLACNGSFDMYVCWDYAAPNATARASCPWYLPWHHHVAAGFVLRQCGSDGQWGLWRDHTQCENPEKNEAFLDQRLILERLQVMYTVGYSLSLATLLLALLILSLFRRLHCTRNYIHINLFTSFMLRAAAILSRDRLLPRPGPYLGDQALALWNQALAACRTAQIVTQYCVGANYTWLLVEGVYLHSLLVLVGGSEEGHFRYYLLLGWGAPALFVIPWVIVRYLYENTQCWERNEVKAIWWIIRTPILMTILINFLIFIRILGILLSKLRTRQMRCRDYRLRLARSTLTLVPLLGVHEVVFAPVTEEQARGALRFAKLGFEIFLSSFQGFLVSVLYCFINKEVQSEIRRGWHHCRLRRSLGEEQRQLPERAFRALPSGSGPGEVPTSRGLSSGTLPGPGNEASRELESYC
Text: A. In Vitro hGIP Receptor Binding Assay

[2] = Human plasma half-life assay; assay type: in vitro ADME; settings: human plasma, 37° C., LC-MS; read-out: Human Plasma T½ (converted)
[3] = Rat plasma half-life assay; assay type: in vitro ADME; settings: rat plasma, 37° C., LC-MS; read-out: Rat Plasma T½ (converted)

CC[C@H](C)[C@H](NC(=O)[C@H](CCCCN)NC(=O)[C@H](CC(=O)O)NC(=O)C1(NC(=O)[C@H](C)NC(=O)[C@@H](NC(=O)C(C)(C)NC(=O)[C@H](Cc2ccc(O)cc2)NC(=O)[C@H](CC(=O)O)NC(=O)[C@H](CO)NC(=O)[C@@H](NC(=O)[C@H](Cc2ccccc2)NC(=O)[C@@H](NC(=O)CNC(=O)[C@H](CCC(=O)O)NC(=O)C(C)(C)NC(=O)[C@@H](N)Cc2ccc(O)cc2)[C@@H](C)O)[C@@H](C)CC)[C@@H](C)CC)CCCCC1)C(=O)N[C@@H](Cc1c[nH]cn1)C(=O)N[C@@H](CCC(N)=O)C(=O)N[C@@H](CCC(N)=O)C(=O)N[C@@H](CC(=O)O)C(=O)N[C@@H](Cc1ccccc1)C(=O)N[C@H](C(=O)N[C@@H](CC(N)=O)C(=O)N[C@@H](Cc1c[nH]c2ccccc12)C(=O)N[C@@H](CC(C)C)C(=O)N[C@@H](CC(C)C)C(=O)N[C@@H](C)C(=O)N[C@@H](CCC(N)=O)C(=O)N[C@@H](CCCCN)C(N)=O)C(C)C [Example 38, (Aib^2, 11, A6c^14)hGIP(1-30)-NH2] (H-Y[Aib]EGTFISDY[Aib]IA[Ac6c]DKIHQQDFVNWLLAQK-NH2; N-terminus assumed)
Ki [1]: 730 pM
half-life at 0.1 mg/ml [2]: 49.1 h
half-life at 0.1 mg/ml [3]: > 54 h

CCCC[C@H](NC(=O)[C@H](C)NC(=O)[C@@H](NC(=O)[C@H](CO)NC(=O)[C@H](Cc1ccc(O)cc1)NC(=O)[C@H](CC(=O)O)NC(=O)[C@H](CO)NC(=O)[C@@H](NC(=O)[C@H](Cc1ccccc1)NC(=O)[C@@H](NC(=O)CNC(=O)[C@H](CCC(=O)O)NC(=O)C1(NC(=O)[C@@H](N)Cc2ccc(O)cc2)CCCC1)[C@@H](C)O)[C@@H](C)CC)[C@@H](C)CC)C(=O)N[C@@H](CC(=O)O)C(=O)N[C@@H](CCCCN)C(=O)N[C@H](C(=O)N[C@@H](Cc1c[nH]cn1)C(=O)N[C@@H](CCC(N)=O)C(=O)N[C@@H](CCC(N)=O)C(=O)N[C@@H](CC(=O)O)C(=O)N[C@@H](Cc1ccccc1)C(=O)N[C@H](C(=O)N[C@@H](CC(N)=O)C(=O)N[C@@H](Cc1c[nH]c2ccccc12)C(=O)N[C@@H](CC(C)C)C(=O)N[C@@H](CC(C)C)C(=O)N[C@@H](C)C(=O)N[C@@H](CCC(N)=O)C(=O)N[C@@H](CCCCN)C(=O)NCC(=O)N[C@@H](CCCCN)C(=O)N[C@@H](CCCCN)C(=O)N[C@@H](CC(N)=O)C(=O)N[C@@H](CC(=O)O)C(=O)N[C@@H](Cc1c[nH]c2ccccc12)C(=O)N[C@@H](CCCCN)C(=O)N[C@@H](Cc1c[nH]cn1)C(=O)N[C@@H](CC(N)=O)C(=O)N[C@H](C(=O)N[C@H](C(=O)N[C@@H](CCC(N)=O)C(=O)O)[C@@H](C)O)[C@@H](C)CC)C(C)C)[C@@H](C)CC [Example 40, (A5c^2, Nle^14)hGIP(1-42)-OH]
Ki [1]: 15900 pM
half-life at 0.1 mg/ml [2]: 7.7 h
half-life at 0.1 mg/ml [3]: 4.9 h

CC[C@H](C)[C@H](NC(=O)[C@H](CCCCN)NC(=O)[C@H](CC(=O)O)NC(=O)[C@H](CCSC)NC(=O)[C@H](C)NC(=O)[C@@H](NC(=O)C1(NC(=O)[C@H](Cc2ccc(O)cc2)NC(=O)[C@H](CC(=O)O)NC(=O)[C@H](CO)NC(=O)[C@@H](NC(=O)[C@H](Cc2ccccc2)NC(=O)[C@@H](NC(=O)CNC(=O)[C@H](CCC(=O)O)NC(=O)C(C)(C)NC(=O)[C@@H](N)Cc2ccc(O)cc2)[C@@H](C)O)[C@@H](C)CC)CCCC1)[C@@H](C)CC)C(=O)N[C@@H](Cc1c[nH]cn1)C(=O)N[C@@H](CCC(N)=O)C(=O)N[C@@H](CCC(N)=O)C(=O)N[C@@H](CC(=O)O)C(=O)N[C@@H](Cc1ccccc1)C(=O)N[C@H](C(=O)N[C@@H](CC(N)=O)C(=O)N[C@@H](Cc1c[nH]c2ccccc12)C(=O)N[C@@H](CC(C)C)C(=O)N[C@@H](CC(C)C)C(=O)N[C@@H](C)C(=O)N[C@@H](CCC(N)=O)C(=O)N[C@@H](CCCCN)C(N)=O)C(C)C [Example 46, (Aib^2, A5c^11)hGIP(1-30)-NH2] (H-Y[Aib]EGTFISDY[Ac5c]IAMDKIHQQDFVNWLLAQK-NH2; N-terminus assumed)
Ki [1]: 90 pM
half-life at 0.1 mg/ml [2]: 12.2 h
half-life at 0.1 mg/ml [3]: > 54 h

CCCC[C@H](NC(=O)C(C)(C)NC(=O)[C@@H](NC(=O)[C@H](CO)NC(=O)[C@H](Cc1ccc(O)cc1)NC(=O)[C@H](CC(=O)O)NC(=O)[C@H](CO)NC(=O)[C@@H](NC(=O)[C@H](Cc1ccccc1)NC(=O)[C@@H](NC(=O)CNC(=O)[C@H](CCC(=O)O)NC(=O)C(C)(C)NC(=O)[C@@H](N)Cc1ccc(O)cc1)[C@@H](C)O)[C@@H](C)CC)[C@@H](C)CC)C(=O)N[C@@H](CC(=O)O)C(=O)N[C@@H](CCCCN)C(=O)N[C@H](C(=O)N[C@@H](Cc1c[nH]cn1)C(=O)N[C@@H](CCC(N)=O)C(=O)N[C@@H](CCC(N)=O)C(=O)N[C@@H](CC(=O)O)C(=O)N[C@@H](Cc1ccccc1)C(=O)N[C@H](C(=O)N[C@@H](CC(N)=O)C(=O)N[C@@H](Cc1c[nH]c2ccccc12)C(=O)N[C@@H](CC(C)C)C(=O)N[C@@H](CC(C)C)C(=O)N[C@@H](C)C(=O)N[C@@H](CCC(N)=O)C(=O)N[C@@H](CCCCN)C(=O)NCC(=O)N[C@@H](CCCCN)C(=O)N[C@@H](CCCCN)C(=O)N[C@@H](CC(N)=O)C(=O)N[C@@H](CC(=O)O)C(=O)N[C@@H](Cc1c[nH]c2ccccc12)C(=O)N[C@@H](CCCCN)C(=O)N[C@@H](Cc1c[nH]cn1)C(=O)N[C@@H](CC(N)=O)C(=O)N[C@H](C(=O)N[C@H](C(=O)N[C@@H](CCC(N)=O)C(=O)O)[C@@H](C)O)[C@@H](C)CC)C(C)C)[C@@H](C)CC [Example 57, (Aib^2, 13, Nle^14)hGIP(1-42)-OH]
Ki [1]: 50 pM
half-life at 0.1 mg/ml [2]: 30.5 h
half-life at 0.1 mg/ml [3]: 13.8 h

CC[C@H](C)[C@H](NC(=O)[C@H](CCCCN)NC(=O)[C@H](CC(=O)O)NC(=O)[C@H](CCSC)NC(=O)C(C)(C)NC(=O)[C@@H](NC(=O)[C@H](CO)NC(=O)[C@H](Cc1ccc(O)cc1)NC(=O)[C@H](CC(=O)O)NC(=O)[C@H](CO)NC(=O)[C@@H](NC(=O)[C@H](Cc1ccccc1)NC(=O)[C@@H](NC(=O)CNC(=O)[C@H](CCC(=O)O)NC(=O)C(C)(C)NC(=O)[C@@H](N)Cc1ccc(O)cc1)[C@@H](C)O)[C@@H](C)CC)[C@@H](C)CC)C(=O)N[C@@H](Cc1c[nH]cn1)C(=O)N[C@@H](CCC(N)=O)C(=O)N[C@@H](CCC(N)=O)C(=O)N[C@@H](CC(=O)O)C(=O)N[C@@H](Cc1ccccc1)C(=O)N[C@H](C(=O)N[C@@H](CC(N)=O)C(=O)N[C@@H](Cc1c[nH]c2ccccc12)C(=O)N[C@@H](CC(C)C)C(=O)N[C@@H](CC(C)C)C(=O)N[C@@H](C)C(=O)N[C@@H](CCC(N)=O)C(=O)N[C@@H](CCCCN)C(=O)NCC(=O)N[C@@H](CCCCN)C(=O)N[C@@H](CCCCN)C(=O)N[C@@H](CC(N)=O)C(=O)N[C@@H](CC(=O)O)C(=O)N[C@@H](Cc1c[nH]c2ccccc12)C(=O)N[C@@H](CCCCN)C(=O)N[C@@H](Cc1c[nH]cn1)C(=O)N[C@@H](CC(N)=O)C(=O)N[C@H](C(=O)N[C@H](C(=O)N[C@@H](CCC(N)=O)C(=O)O)[C@@H](C)O)[C@@H](C)CC)C(C)C [Example 60, (Aib^2, 13)hGIP(1-42)-OH]
Ki [1]: 50 pM
half-life at 0.1 mg/ml [2]: 26 h
half-life at 0.1 mg/ml [3]: 10.5 h

CCCC[C@H](NC(=O)[C@H](C)NC(=O)[C@@H](NC(=O)C1(NC(=O)[C@H](Cc2ccc(O)cc2)NC(=O)[C@H](CC(=O)O)NC(=O)[C@H](CO)NC(=O)[C@@H](NC(=O)[C@H](Cc2ccccc2)NC(=O)[C@@H](NC(=O)CNC(=O)[C@@H]2CCCN2C(=O)[C@H](C)NC(=O)[C@@H](N)Cc2ccc(O)cc2)[C@@H](C)O)[C@@H](C)CC)CCCC1)[C@@H](C)CC)C(=O)N[C@@H](CC(=O)O)C(=O)N[C@@H](CCCCN)C(=O)N[C@H](C(=O)N[C@@H](Cc1c[nH]cn1)C(=O)N[C@@H](CCC(N)=O)C(=O)N[C@@H](CCC(N)=O)C(=O)N[C@@H](CC(=O)O)C(=O)N[C@@H](Cc1ccccc1)C(=O)N[C@H](C(=O)N[C@@H](CC(N)=O)C(=O)N[C@@H](Cc1c[nH]c2ccccc12)C(=O)N[C@@H](CC(C)C)C(=O)N[C@@H](CC(C)C)C(=O)N[C@@H](C)C(=O)N[C@@H](CCC(N)=O)C(=O)N[C@@H](CCCCN)C(=O)O)C(C)C)[C@@H](C)CC [Example 92, (Pro^3, A5c^11, Nle^14)hGIP(1-30)-OH] (H-YAPGTFISDY[Ac5c]IA[Nle]DKIHQQDFVNWLLAQK-OH; N-terminus and C-terminus assumed)
Ki [1]: 86800 pM
half-life at 0.1 mg/ml [2]: 12 h
half-life at 0.1 mg/ml [3]: 1.6 h

CCCC[C@H](NC(=O)C(C)(C)NC(=O)[C@@H](NC(=O)[C@H](CO)NC(=O)[C@H](Cc1ccc(O)cc1)NC(=O)[C@H](CC(=O)O)NC(=O)[C@H](CO)NC(=O)[C@@H](NC(=O)[C@H](Cc1ccccc1)NC(=O)[C@@H](NC(=O)CNC(=O)[C@@H]1CCCN1C(=O)C(C)(C)NC(=O)[C@@H](N)Cc1ccc(O)cc1)[C@@H](C)O)[C@@H](C)CC)[C@@H](C)CC)C(=O)N[C@@H](CC(=O)O)C(=O)N[C@@H](CCCCN)C(=O)N[C@H](C(=O)N[C@@H](Cc1c[nH]cn1)C(=O)N[C@@H](CCC(N)=O)C(=O)N[C@@H](CCC(N)=O)C(=O)N[C@@H](CC(=O)O)C(=O)N[C@@H](Cc1ccccc1)C(=O)N[C@H](C(=O)N[C@@H](CC(N)=O)C(=O)N[C@@H](Cc1c[nH]c2ccccc12)C(=O)N[C@@H](CC(C)C)C(=O)N[C@@H](CC(C)C)C(=O)N[C@@H](C)C(=O)N[C@@H](CCC(N)=O)C(=O)N[C@@H](CCCCN)C(N)=O)C(C)C)[C@@H](C)CC [Example 108, (Aib^2, 13, Pro^3, Nle^14)hGIP(1-30)-NH2] (H-Y[Aib]PGTFISDYSI[Aib][Nle]DKIHQQDFVNWLLAQK-NH2; N-terminus assumed)
Ki [1]: 70 pM
half-life at 0.1 mg/ml [2]: 46.2 h
half-life at 0.1 mg/ml [3]: 45.6 h
